How the values were obtained:
[1] = test system: prostaglandin E2 (PGE2) synthesis in Human fetal fibroblast cells; test: In vitro inhibition of prostaglandin E2 (PGE2) synthesis assay; assay type: cell-based; details: IL-1 for 16 hours, compound 10 uM given with IL-1, ELISA, Basal 0.6, IL-1 alone 9.4
Experimental: B. In vitro inhibiton of prostaglandin E2 (PGE2) synthesis assay: Human fetal fibroblast cells were treated with IL-1 for 16 hours and prostaglandin E2 was measured by an ELISA. Compounds were given at the time of addition of IL-1. This assay provides an in vitro assessment of the compound to block the induction of the proinflammatory agent prostaglandin E2 (PGE2): […]

[2] = test system: rat aortic ring smooth muscle; test: In vitro smooth muscle relaxant activity assay (rat aortic ring) in the presence of Cys and L-NAME; assay type: cell-based; details: for EC50: rat aortic rings precontracted with phenylephrine (0.3 uM), in the presence of cysteine and L-NAME, read-out: Relaxation, EC50
Experimental: The rat aortic ring assay was utilized as a bioassay to measure the relaxant activity. The rings were precontracted with phenylephrine (0.3 uM) and subsequently compounds were added to the tissue bath in the presence of cysteine (Cys) and N^G -L-nitroarginine methyl ester (L-NAME): A.In vitro smooth muscle relaxant activity assay in the presence of Cys and L-NAME: […]

Row | Structure (SMILES) | PGE2 [1] [ng] | EC50 [2] [µM] | smooth muscle relaxant activity (in words) ([2]; rat aortic ring, precontracted with phenylephrine, Cys and L-NAME)
1 | C[C@@H]1C[C@H]2[C@@H]3CCC4=CC(=O)C=C[C@]4(C)[C@@]3(F)[C@@H](O)C[C@]2(C)[C@@]1(O)C(=O)CO [Dexamethasone, reference compound] | 0.6 |  | 
2 | CCC(=O)OCC(=O)[C@@]1(OC(=O)CC)[C@@H](C)C[C@H]2[C@@H]3CCC4=CC(=O)C=C[C@]4(C)[C@@]3(Cl)[C@@H](OC(=O)CCC(=O)O[C@H]3CO[C@H]4[C@@H]3OC[C@H]4O[N+](=O)[O-])C[C@@]21C [Example 1] | 0.5 | > 10 | 
3 | C[C@]12C=CC(=O)C=C1CC[C@@H]1[C@@H]2[C@@H](O)C[C@@]2(C)[C@H]1CC[C@]2(O)C(=O)COC(=O)CCC(=O)O[C@H]1CO[C@H]2[C@@H]1OC[C@H]2O[N+](=O)[O-] [Example 21] | 0.4 | 3 | 
4 | CCC(=O)OCC(=O)[C@@]1(OC(=O)CC)[C@@H](C)C[C@H]2[C@@H]3CCC4=CC(=O)C=C[C@]4(C)[C@@]3(Cl)[C@@H](O)C[C@@]21C [Beclomethasone-dipropionate, reference compound] |  | 100 | did not show any effect
